pEC50: −log10 of the molar value.
Tests used:
[1] = test system: high fat fodder obese C57BL/6J mice; experiment: High fat fodder obese mice: levels of blood lipid and blood glucose; assay type: in vivo; parameters: HDL / GLU / TC / TG: unit not given here; conditions: for GLU / HDL / TG / TC: mean ± s, n 5
Text: 3 week-old male C57BL/6J mice were chosen as experiment animals, 15 of which were randomly selected to feed with a standard fodder, and the remains were allowed to feed with a high fat fodder, with each of the mice being marked by ear-cutting. The body weights and fodder intake of the mice were weighed every week. […] […], the effects of the medicaments on the levels of blood lipid and blood glucose, body weight, and fodder intake in the animals were observed, while a glucose tolerance test was performed to investigate the effects of the medicaments on the glucose tolerance in the animals.

[2] = molecular target: T1, PPARδ (Homo sapiens, UniProt Q03181); experiment: In vitro screening of nuclear receptor agonist: luciferase reporter gene assay in HepG2 cells; assay type: cell-based; conditions: RXR/PPARδ luciferase reporter gene, 24 h treatment
T1 construct: expressed in transfected cells; host or cells: HepG2 (human hepatocarcinoma, ATCC)
T1 sequence (Q03181 1-441): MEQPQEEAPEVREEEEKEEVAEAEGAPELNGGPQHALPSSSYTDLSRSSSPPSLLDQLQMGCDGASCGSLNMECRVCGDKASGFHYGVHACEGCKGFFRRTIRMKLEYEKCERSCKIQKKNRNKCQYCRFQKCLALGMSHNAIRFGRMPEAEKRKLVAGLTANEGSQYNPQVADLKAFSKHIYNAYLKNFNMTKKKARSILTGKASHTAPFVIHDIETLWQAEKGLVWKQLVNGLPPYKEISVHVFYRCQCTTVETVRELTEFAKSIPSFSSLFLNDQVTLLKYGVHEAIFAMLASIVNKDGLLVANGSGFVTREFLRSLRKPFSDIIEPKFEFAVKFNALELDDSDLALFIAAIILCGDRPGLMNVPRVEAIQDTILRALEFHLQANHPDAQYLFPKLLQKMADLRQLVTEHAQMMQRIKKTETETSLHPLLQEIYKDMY
T1 sequence (P19793 1-462 partner): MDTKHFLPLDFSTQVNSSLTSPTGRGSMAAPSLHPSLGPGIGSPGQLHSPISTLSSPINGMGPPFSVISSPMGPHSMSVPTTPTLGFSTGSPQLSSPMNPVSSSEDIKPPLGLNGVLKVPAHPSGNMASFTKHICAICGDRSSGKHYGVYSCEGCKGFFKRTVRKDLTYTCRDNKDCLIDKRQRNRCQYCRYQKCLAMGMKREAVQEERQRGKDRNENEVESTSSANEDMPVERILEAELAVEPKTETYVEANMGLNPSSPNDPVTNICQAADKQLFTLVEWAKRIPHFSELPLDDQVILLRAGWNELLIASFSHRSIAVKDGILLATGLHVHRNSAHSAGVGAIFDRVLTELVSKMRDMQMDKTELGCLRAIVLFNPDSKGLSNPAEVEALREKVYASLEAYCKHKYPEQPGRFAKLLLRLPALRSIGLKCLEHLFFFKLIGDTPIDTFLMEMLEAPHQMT
Text: Using a reporter gene protocol, the screening model for screening a nuclear receptor agonist in a living cell is designed on a basis of the principal that an activated nuclear receptor can activate transcription of its downstream gene. A reporter gene plasmid is constructed, in which the DNA binding sequence for the nuclear receptor (NRE) is inserted upstream of the luciferase gene, so that the expression of the luciferase gene is placed under the control of the nuclear receptor. Then, the reporter gene plasmid and the nuclear receptor are simultaneously transferred into a cell, and the nuclear receptor is activated when the nuclear receptor agonist is present in the cell culture medium. Then the activated receptor is able to induce the expression of the luciferase gene, while the amount of the luciferase can be determined through its luminous substrate. In this way, the intensity of activation by the compound on the nuclear receptor could be known by observing the luminescence intensity.
The specific operation is described as follows:
The experiment reagents: the compounds to be tested (20 mM, in DMSO, stored at −80° C.).
The hepatocarcinoma cell HepG2 (from ATCC, American Type Culture Collection) was cultured in DMEM medium supplemented with 10% heat-inactivated fetal bovine serum (FBS, Invitogen, Grand Island, N.Y., USA) in a T-75 culture bottle (Greiner, Germany) in a incubator at 37° C., the relative humidity of 100%, and 5% CO2. When the cell culture in the culture bottle reached 80-90% confluency, it was digested with 0.25% Trypsin (with EDTA) for 3 min and inoculated into a 96-well cell culture plate at an inoculating density of 2000 cells/100 μl/well.
In the next day, when the cells in the 96-well culture plate grew up to 50-80% confluency, cell transfection was performed. The cell co-transfection system comprised the FuGene6 transfection agent (Roche Molecular Biochemicals, Indianapolis, Ind., U.S.A.) and 60 ng DNA (long of hRXR, 10 ng of pCMV βGal, 10 ng of the nuclear receptor expression plasmid RXR/PPARδ, 30 ng of GFP fluorescence reporter gene plasmid, respectively).
The cell culture medium was discarded immediately at 24 hours post-transfection and replaced by 200 μl of a fresh DMEM medium containing the medicament to be tested (with 10% FBS treated by activated carbon).
24 h after treatment with the medicament, the cells were lysed with a lysis solution (Cell Culture Lysis buffer, Promega) and centrifuged, and the supernatant was collected. The supernatant was treated with a fluorescence detection kit (Promega) and counted by a fluorescence meter (Ascent Fluoroskan FL reader, Thermo Labsystems, Finland), and the relative intensity of the luciferase was determined. For assaying the β-galactosidase activity used in the experiment as the inner reference (the inner reference calibrating for the transfection efficiency), 50 μl of the supernatant was transferred into a fresh microplate and treated with the Promega kit and read at a wavelength of 405 nm from a microplate reader (Bio-tech Instruments Inc., Winooski, Vt., USA) (Sauerberg, P.; Olsen, G. S.; Jeppesen, L.; Mogensen, J. P. et al., J. Med. Chem., 2007, 50, 1495-1503).
The median effective concentration (EC50) of a sample is a concentration at which the sample has 50% pharmacological effect. This value is one of the important parameters for evaluating pharmacological effects of a compound. In the present screening process, the EC50 of a sample was calculated according to the activation of the receptor by the sample at six different concentrations.

[3] = test system: high fat fodder obese C57BL/6J mice; experiment: Oral glucose tolerance test in obese mice; assay type: in vivo; conditions: FIG. 2, in words
Experimental: The abscissa represents blood-sampling time points, 0 min, 30 min, 60 min, 120 min after orally given with glucose; the ordinate represents the corresponding blood glucose level (mmol/L).
(§1) 3 week-old male C57BL/6J mice were chosen as experiment animals, 15 of which were randomly selected to feed with a standard fodder, and the remains were allowed to feed with a high fat fodder, with each of the mice being marked by ear-cutting. The body weights and fodder intake of the mice were weighed every week. […] After the administration of the inventive compounds for four weeks, the effects of the medicaments on the levels of blood lipid and blood glucose, body weight, and fodder intake in the animals were observed, while a glucose tolerance test was performed to investigate the effects of the medicaments on the glucose tolerance in the animals.

[4] = test system: high fat fodder obese C57BL/6J mice; experiment: High fat fodder obese mice: body weight and food intake; assay type: in vivo
Text: as §1

[5] = 2 weeks administration, 3.3 mg/kg
[6] = 2 weeks administration, 10 mg/kg
[7] = 4 weeks administration, 3.3 mg/kg
[8] = 4 weeks administration, 10 mg/kg

Cc1cc(SCC(=O)O)c(C)cc1OC(c1ccccc1)c1nn(-c2ccc(C(F)(F)F)cc2)c(=O)n1C (stereo not drawn) [Compound A-11, 2-(2,5-dimethyl-4-(1-(3-(4-methyl-5-oxo-1-(4-trifluoromethyl-phenyl)-4,5-dihydrogen-1H-1,2,4-triazolyl))-benzyloxy)-phenylthio)-acetic acid]
GLU [1, 5]: 8.85 ± 2.13 | HDL [1, 5]: 3.25 ± 1.29 | TG [1, 5]: 0.21 ± 0.08 | GLU [1, 6]: 6.51 ± 1.61 | HDL [1, 6]: 2.39 ± 1.36 | TC [1, 6]: 4.51 ± 0.37 | TG [1, 6]: 0.16 ± 0.06 | GLU [1, 7]: 7.61 ± 0.5 | HDL [1, 7]: 3.83 ± 0.1 | TC [1, 7]: 5.84 ± 0.21 | TG [1, 7]: 0.12 ± 0.05 | GLU [1, 8]: 6.93 ± 0.3 | HDL [1, 8]: 2.84 ± 1.09 | TC [1, 8]: 5.28 ± 0.48 | TG [1, 8]: 0.15 ± 0.05 | levels of TG and GLU in the sera from the model animals ([1]; in words): significantly decrease | pEC50 [2]: > 9.00 | glucose tolerance in the obese animals [3]: significantly improve the glucose tolerance | Food intake ([4]; column 1, 3.3 mg/kg): 6.0 g | Food intake ([4]; column 1, 10 mg/kg): 7.2 g | Food intake ([4]; column 2, 3.3 mg/kg): 5.0 g | Food intake ([4]; column 2, 10 mg/kg): 5.2 g | Food intake ([4]; column 3, 3.3 mg/kg): 5.8 g | Food intake ([4]; column 3, 10 mg/kg): 6.0 g | Food intake ([4]; column 4, 3.3 mg/kg): 6.2 g | Food intake ([4]; column 4, 10 mg/kg): 6.4 g | Food intake ([4]; column 5, 3.3 mg/kg): 6.9 g | Food intake ([4]; column 5, 10 mg/kg): 6.9 g | effect on the food intake of the animals ([4]; in words): no significant effect | body weight of the animals ([4]; in words, Table 4 and FIG. 1): significantly decrease
